Laboratory results published in US10471043B2, “Compounds and methods of treating bacterial infections” (ULTUPHARMA AB, priority 2015, dated 2019).
Values after ≈ are worked out from the molar mass of the structure shown. Read-outs that look alike come from different tables or passages of the source.

How the values were obtained:
[1] = cited from earlier work
[2] = system: mupirocin-resistant strains of Staphylococcus aureus; assay: MIC against mupirocin-resistant strains; assay type: cell-based
Method: (§1) At first (Table 1), MIC is determined by broth micro-dilution method. The test medium is Antibiotic Medium 3 (AM3; Difco Ltd) mixed with Phosphate Buffered Saline (PBS) in proportions 1:1. Selected MIC values are verified using cation-adjusted Mueller Hinton Broth (MHB; BD). Cell concentration of tested pathogen is adjusted to between 3 and 5×10^5 cells per ml. To verify cell concentration of tested pathogen, viable cell counts are performed directly after each MIC-test by dilution method with PBS as a dilution solvent. Cells are counted on the agar plates with 50% strength Vegetable Peptone Broth (50% VPB; Oxoid Ltd) after 16 to 20 h of incubation at 37° C.
(§2) Cells of pathogen suspended in test medium are distributed to the wells and the plates are incubated for 16 to 20 h at 37° C. Negative controls are wells with the test medium only and positive controls are wells with the pathogen in test medium. The MIC is defined as the lowest concentration of each compound with no visible growth of pathogen.

[3] = system: Staphylococcus aureus strain LMG15975; assay: MIC by broth micro-dilution, AM3/PBS 1:1; assay type: cell-based
Method: as §1, §2
Example compounds of formula I were examined for antibacterial activity against the Gram-positive bacterium Staphylococcus aureus strain LMG15975 using the above described method (Table 1).

[4] = Cytotoxicity assay, WST-8; conditions: human, HepG2 cells, CC50 (μg/mL)
[5] = system: M. frederiksbergense; assay: MIC by broth micro-dilution; assay type: cell-based; conditions: Table 4; read-out: MIC (μg/ml) M. frederiksbergense
Method: as §1, §2

[6] = system: A. baumannii; assay: MIC by broth micro-dilution; assay type: cell-based; conditions: Acinetobacter baumannii, A. baumannii (G−), Table 2; read-out: MIC (μg/ml) A. baumannii
Method: as §1, §2

[7] = system: Bacillus cereus; assay: MIC by broth micro-dilution; assay type: cell-based; conditions: Table 4, read-out: MIC (μg/ml) B. cereus
Method: as §1, §2

[8] = system: Mycobacterium smegmatis; assay: MIC by broth micro-dilution; assay type: cell-based; conditions: Mycolicibacterium smegmatis; Table 4; read-out: MIC (μg/ml) M. smegmatis
Method: as §1, §2

[9] = in vitro; conditions: human, CC50 (μg/mL)
[10] = system: Proteus mirabilis; assay: MIC panel of Gram-negative bacteria (Table 7); assay type: cell-based
[11] = system: Enterobacter aerogenes; assay: MIC panel of Gram-negative bacteria (Table 7); assay type: cell-based; conditions: Klebsiella aerogenes; EN0461 Enterobacter aerogenes G− PKL 3706
[12] = system: E. faecium; assay: Antimicrobial Susceptibility Test by Broth Microdilution, M07-A9 CLSI; assay type: cell-based; conditions: Enterococcus faecium; E. faecium 7, Vancomycin-resistant, Table 5; read-out: MIC
[13] = system: S. epidermidis; assay: as above; assay type: cell-based; conditions: Staphylococcus epidermidis
[14] = system: Serratia marescens; assay: MIC panel of Gram-negative bacteria (Table 7); assay type: cell-based; conditions: EN0454 Serratia marescens G− PKL 3692
[15] = system: S. typhimurium; assay: MIC panel of Gram-negative bacteria (Table 7); assay type: cell-based; conditions: Salmonella enterica; EN0466 S. typhimurium G− TH6509
[16] = system: S. aureus; assay: Antimicrobial Susceptibility Test by Broth Microdilution, M07-A9 CLSI; assay type: cell-based; conditions: Staphylococcus aureus
[17] = system: K. oxytoca; assay: MIC panel of Gram-negative bacteria (Table 7); assay type: cell-based; conditions: Klebsiella oxytoca; EN0392 K. oxytoca G−
[18] = system: K. pneumoniae; assay: MIC panel of Gram-negative bacteria (Table 7); assay type: cell-based; conditions: Klebsiella pneumoniae
[19] = system: Micrococcus luteus; assay: MIC panel of Gram-negative bacteria (Table 7); assay type: cell-based; conditions: EN0455 Micrococcus luteus G+ PKL 3693
[20] = system: P. aeruginosa; assay: MIC panel of Gram-negative bacteria (Table 7); assay type: cell-based; conditions: Pseudomonas aeruginosa
[21] = system: Citrobacter sp.; assay: MIC panel of Gram-negative bacteria (Table 7); assay type: cell-based; conditions: EN0465 Citrobacter sp. G− PKL 3710
[22] = system: E. faecalis; assay: Antimicrobial Susceptibility Test by Broth Microdilution, M07-A9 CLSI; assay type: cell-based; conditions: Enterococcus faecalis
[23] = system: S. epidermidis; assay: MIC panel of Gram-negative bacteria (Table 7); assay type: cell-based; conditions: Staphylococcus epidermidis; EN0456 S. epidermidis G+ PKL 3694
[24] = system: A. Pittii/nosocomialis; assay: MIC panel of Gram-negative bacteria (Table 7); assay type: cell-based; conditions: Acinetobacter pittii; EN0180 A. Pittii/nosocomialis G−
[25] = system: E. coli; assay: MIC panel of Gram-negative bacteria (Table 7); assay type: cell-based; conditions: Escherichia coli
[26] = system: A. baumanii; assay: MIC panel of Gram-negative bacteria (Table 7); assay type: cell-based
[27] = Kong et al 2005; cited from earlier work
[28] = system: Dutch Elm disease fungus; conditions: Ayer & Villar 1985; cited from earlier work
[29] = system: Pyricularia oryziae; conditions: Miyakado et al 1982; cited from earlier work
[30] = reference markers for Caco-2 assay
[31] = S. aureus V55, mupirocin-resistant
[32] = S. aureus V86, mupirocin-resistant
[33] = LMG15975, S. aureus LMG15975, Table 1, read-out: MIC
[34] = LMG15975, S. aureus LMG15975, Table 1, read-out: MIC (μg/ml)
[35] = LMG15975, Table 4, read-out: MIC (μg/ml) S. aureus
[36] = S. epidermis RO7, Methicillin-sensitive, Table 5
[37] = S. epidermis Staph 1, Methicillin-resistant
[38] = S. epidermis TA12, Methicillin-resistant, Table 5
[39] = ATCC29213, S. aureus ATCC29213, QC strain, Table 5
[40] = S. aureus 7280, Methicillin-resistant
[41] = S. aureus MO17, Methicillin-sensitive, Table 5
[42] = S. aureus PICI, Methicillin-resistant, Table 5
[43] = LMG15975, S. aureus LMG 15975 (SLU), Methicillin-resistant, Table 5, read-out: MIC (μg/mL)
[44] = E. faecalis 14, Vancomycin-resistant
[45] = E. faecalis 24, Vancomycin-sensitive, Table 5

Nc1nc2c(ncn2COCCO)c(=O)[nH]1 [Acyclovir]
absorption in man (%) [1, 30]: 30%

CCCCCCCCCC1CC(O)=C(C(=O)CCCC)C(=O)O1 (stereo not shown) [Ex. 8, 4-hydroxy-6-nonyl-3-pentanoyl-5,6-dihydro-2H-pyran-2-one]
MIC [2, 31]: ≤0.1 µg/mL | MIC [2, 32]: ≤0.1 µg/mL | MIC ([2]; Staphylococcus aureus, S. aureus V321, mupirocin-resistant, read-out: MIC): ≤ 0.1 µg/mL | MIC ([3]; LMG15975, S. aureus (G+), Table 2, read-out: MIC (μg/ml) S. aureus): < 0.6 µg/mL | MIC [3, 33]: ≤ 1.9 µM | MIC [3, 34]: ≤ 0.6 µg/mL | MIC [3, 35]: ≤ 0.6 µg/mL | CC50 at 48 h ([4]; HepG2, 48 hours, Table 1): 36 µM | MIC [5]: ≤ 4 µg/mL | MIC [6]: 8 to 16 µg/mL (≈ 24.7 to 49.3 µM) | MIC [7]: ≤ 1 µg/mL | MIC [8]: ≤ 4 µg/mL

CCCCCCCCCCC1CC(O)=C(C(=O)CC)C(=O)O1 (stereo not shown) [Ex. 10, 6-decyl-4-hydroxy-3-propionyl-5,6-dihydro-2H-pyran-2-one]
MIC [3, 33]: 1.3 to 2.6 µM | MIC [3, 34]: 0.4 to 0.8 µg/mL | CC50 at 48 h [9]: 60 µM | MIC [5]: ≤ 0.5 µg/mL | MIC [7]: ≤ 1 µg/mL

CCCCCCCCCC1CC(O)=C(C(=O)CC2CCCCC2)C(=O)O1 (stereo not shown) [Ex. 14, 3-(2-cyclohexylacetyl)-4-hydroxy-6-nonyl-5,6-dihydro-2H-pyran-2-one]
MIC ([10]; EN0445 P. mirabilis ST19 G−): >64 µg/mL | MIC ([10]; EN0457 Proteus mirabilis G− PKL 3695, read-out: MIC): > 64 µg/mL | MIC [11]: > 64 µg/mL | MIC [12]: 1 µg/mL (≈ 2.74 µM) | MIC [13, 36]: 0.5 µg/mL (≈ 1.37 µM) | MIC [13, 37]: 0.5 µg/mL (≈ 1.37 µM) | MIC [13, 38]: 0.5 µg/mL (≈ 1.37 µM) | MIC [14]: > 64 µg/mL | MIC [15]: > 64 µg/mL | MIC [16, 39]: 2 µg/mL (≈ 5.49 µM) | MIC [16, 40]: 2 µg/mL (≈ 5.49 µM) | MIC [16, 41]: 1 µg/mL (≈ 2.74 µM) | MIC [16, 42]: 1 µg/mL (≈ 2.74 µM) | MIC [17]: > 64 µg/mL | MIC [2, 31]: ≤0.1 µg/mL | MIC [2, 32]: ≤0.1 µg/mL | MIC ([2]; S. aureus V321, mupirocin-resistant): ≤0.1 µg/mL | MIC ([2]; Staphylococcus aureus, S. aureus V308, mupirocin-resistant, read-out: MIC): ≤ 0.1 µg/mL | MIC [3, 43]: 0.25 µg/mL | MIC [3, 33]: ≤ 0.3 µM | MIC [3, 34]: 0.25 µg/mL | MIC [3, 35]: ≤ 0.1 µg/mL | MIC ([18]; EN006 K. pneumoniae WT, ENABLE Primary MIC panel): > 64 µg/mL | MIC ([18]; EN0010 K. pneumoniae, ENABLE L2C MIC panel (isogenic efflux pairs)): > 64 µg/mL | MIC ([18]; EN0011 K. pneumoniae Efflux mut, ENABLE L2C MIC panel): > 64 µg/mL | MIC [19]: 0.5 µg/mL (≈ 1.37 µM) | CC50 at 48 h ([4]; HepG2, 48 hours, Table 1): 14 µM | CC50 at 48 h ([4]; HepG2, Table 5): 14 µM | MIC ([20]; EN004 P. aeruginosa WT, ENABLE Primary MIC panel): > 64 µg/mL | MIC ([20]; EN005 P. aeruginosa Efflux mut, ENABLE Primary MIC panel): > 64 µg/mL | MIC ([20]; EN0014 P. aeruginosa, ENABLE L2C MIC panel): > 64 µg/mL | MIC ([20]; EN0015 P. aeruginosa Efflux mut, ENABLE L2C MIC panel): > 64 µg/mL | MIC ([20]; EN0422 P. aeruginosa G−): > 64 µg/mL | MIC ([20]; EN0459 P. aeruginosa G− PKL 3699): > 64 µg/mL | MIC ([20]; EN0460 P. aeruginosa G− PKL 3704): > 64 µg/mL | MIC [21]: > 64 µg/mL | MIC [22, 44]: 1 µg/mL (≈ 2.74 µM) | MIC [22, 45]: 1 µg/mL (≈ 2.74 µM) | MIC [7]: ≤ 1 µg/mL | MIC [23]: 1 µg/mL (≈ 2.74 µM) | MIC [24]: > 64 µg/mL | MIC ([25]; EN001 E. coli WT, ENABLE Primary MIC panel): > 64 µg/mL | MIC ([25]; EN002 E. coli DtolC, ENABLE Primary MIC panel): > 64 µg/mL | MIC ([25]; EN003 E. coli D22 (lps mut), ENABLE Primary MIC panel): > 64 µg/mL | MIC ([25]; EN0012 E. coli, ENABLE L2C MIC panel): > 64 µg/mL | MIC ([25]; EN0013 E. coli Del-tolC, ENABLE L2C MIC panel): 16 µg/mL (≈ 43.9 µM) | MIC ([25]; EN0458 E. coli B G− PKL 3698): > 64 µg/mL | MIC ([26]; Acinetobacter baumannii, EN007 A. baumanii WT, ENABLE Primary MIC panel, read-out: MIC): > 64 µg/mL | MIC ([26]; EN0016 A. baumanii, ENABLE L2C MIC panel): >64 µg/mL | MIC ([26]; EN0017 A. baumanii Efflux mut, ENABLE L2C MIC panel): >64 µg/mL

CCCCCCCCCCCC1CC(O)=C(C(=O)CCCC)C(=O)O1 (stereo not shown) [Ex. 17, 4-hydroxy-3-pentanoyl-6-undecyl-5,6-dihydro-2H-pyran-2-one]
MIC [12]: 1 µg/mL (≈ 2.84 µM) | MIC [13, 36]: 0.5 µg/mL (≈ 1.42 µM) | MIC [13, 37]: 0.5 µg/mL (≈ 1.42 µM) | MIC [13, 38]: 0.5 µg/mL (≈ 1.42 µM) | MIC [16, 39]: 16 µg/mL (≈ 45.4 µM) | MIC [16, 40]: 8 µg/mL (≈ 22.7 µM) | MIC [16, 41]: 4 µg/mL (≈ 11.3 µM) | MIC [16, 42]: 8 µg/mL (≈ 22.7 µM) | MIC [3, 43]: 0.1 to 0.2 µg/mL | MIC [3, 33]: 0.3 to 0.6 µM | MIC [3, 34]: 0.1 to 0.2 µg/mL | CC50 at 48 h ([4]; HepG2, 48 hours, Table 1): 12 µM | CC50 at 48 h ([4]; HepG2, Table 5): 12 µM | MIC [22, 44]: 1 µg/mL (≈ 2.84 µM) | MIC [22, 45]: 1 µg/mL (≈ 2.84 µM) | MIC [7]: ≤ 1 µg/mL

N[C@@H](Cc1ccccc1)C(=O)O [L-Phenylalanine]
absorption in man (%) [1, 30]: 100%

OC[C@@H](O)[C@@H](O)[C@H](O)[C@H](O)CO [Mannitol]
absorption in man (%) ([1]; in vivo): 16%

CN(Cc1cnc2nc(N)nc(N)c2n1)c1ccc(C(=O)N[C@@H](CCC(=O)O)C(=O)O)cc1 [Methotrexate]
absorption in man (%) ([1]; in vivo): 20%

CCCCCCc1c(O)cc(CCCCC)oc1=O [pseudopyronine A]
antibacterial activities [27]: moderate to poor

CCCCCCCc1cc(O)c(CCCCCC)c(=O)o1 [pseudopyronine B]
antibacterial activities [27]: moderate to poor

lachnellulic acid
activity against the Dutch Elm disease fungus [28]: active

podoblastin A
activity against the fungus Pyricularia oryziae [29]: active
